Test results published in the supplement of paper PMC10307832.

What was measured:
Experiment in all cases: relative viability (nuclei count vs DMSO), 5 days (fraction); higher = more cells survive
Venetoclax + Palbociclib = compound: CC1(C)CCC(CN2CCN(c3ccc(C(=O)NS(=O)(=O)c4ccc(NCC5CCOCC5)c([N+](=O)[O-])c4)c(Oc4cnc5[nH]ccc5c4)c3)CC2)=C(c2ccc(Cl)cc2)C1 [Venetoclax] + CC(=O)c1c(C)c2cnc(Nc3ccc(N4CCNCC4)cn3)nc2n(C2CCCC2)c1=O [Palbociclib] (partner 0.5 µM)
Method in brief: (§1)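 After 5 days of treatment, lung cancer cells in 1536-well plates were fixed and stained in a single step (final 0.05% Triton X-100, 1% formaldehyde, 1 ug/ml Hoechst) and their nuclei counted on 4× images. Treatment had been applied by pin tool the day after seeding as one drug alone or as a fixed anchor-drug dose with five library-drug doses (not always all listed) in √10 steps. Relative viability is the nuclei count of treated wells divided by that of vehicle wells, and values are medians of duplicate plates.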

Venetoclax + Navitoclax = compound: CC1(C)CCC(CN2CCN(c3ccc(C(=O)NS(=O)(=O)c4ccc(NCC5CCOCC5)c([N+](=O)[O-])c4)c(Oc4cnc5[nH]ccc5c4)c3)CC2)=C(c2ccc(Cl)cc2)C1 [Venetoclax] + CC1(C)CCC(c2ccc(Cl)cc2)=C(CN2CCN(c3ccc(C(=O)NS(=O)(=O)c4ccc(N[C@H](CCN5CCOCC5)CSc5ccccc5)c(S(=O)(=O)C(F)(F)F)c4)cc3)CC2)C1 [Navitoclax] (partner 0.5 µM)
Method in brief: as §1

Selumetinib + Crizotinib = compound: Cn1cnc2c(F)c(Nc3ccc(Br)cc3Cl)c(C(=O)NOCCO)cc21 [Selumetinib] + C[C@@H](Oc1cc(-c2cnn(C3CCNCC3)c2)cnc1N)c1c(Cl)ccc(F)c1Cl [Crizotinib] (partner 1 µM)
Method in brief: as §1

Selumetinib + Linsitinib = compound: Cn1cnc2c(F)c(Nc3ccc(Br)cc3Cl)c(C(=O)NOCCO)cc21 [Selumetinib] + C[C@]1(O)C[C@@H](c2nc(-c3ccc4ccc(-c5ccccc5)nc4c3)c3c(N)nccn32)C1 [Linsitinib] (partner 1 µM)
Method in brief: as §1

Cell Line	relative viability (Venetoclax + Palbociclib; first compound 0.01 µM)	relative viability (Venetoclax + Palbociclib; first compound 0.03162 µM)	relative viability (Venetoclax + Palbociclib; first compound 0.1 µM)	relative viability (Venetoclax + Palbociclib; first compound 0.3162 µM)	relative viability (Venetoclax + Palbociclib; first compound 1 µM)	relative viability (Venetoclax + Navitoclax; first compound 0.01 µM)	relative viability (Venetoclax + Navitoclax; first compound 0.03162 µM)	relative viability (Venetoclax + Navitoclax; first compound 0.1 µM)	relative viability (Venetoclax + Navitoclax; first compound 0.3162 µM)	relative viability (Venetoclax + Navitoclax; first compound 1 µM)	relative viability (Selumetinib + Crizotinib; first compound 0.02 µM)	relative viability (Selumetinib + Crizotinib; first compound 0.06325 µM)	relative viability (Selumetinib + Crizotinib; first compound 0.2 µM)	relative viability (Selumetinib + Crizotinib; first compound 0.6325 µM)	relative viability (Selumetinib + Linsitinib; first compound 0.02 µM)	relative viability (Selumetinib + Linsitinib; first compound 0.06325 µM)	relative viability (Selumetinib + Linsitinib; first compound 0.2 µM)	relative viability (Selumetinib + Linsitinib; first compound 0.6325 µM)
201T	0.364	0.353	0.321	0.331	0.334	1.17	1.24	1.27	1.19	1.21	1.01	0.99	0.93	0.902	0.987	0.978	0.949	0.932
A549						1.29	1.25	1.23	1.17	1.08	0.715	0.656	0.495	0.402	0.489	0.436	0.363	0.349
A-427	0.469	0.595	0.498	0.507	0.516	0.874	1.1	0.967	0.988	1.01	0.88	0.768	0.73	0.701	1.16	1.09	1.02	0.925
ABC-1	0.802	0.796	0.564	0.618	0.797						1.57	1.03	1.11	1.12	0.794	0.678	0.607	0.614
BEN	0.519	0.469	0.49	0.489	0.498	0.36	0.0558	0.072	0.0753	0.0581	0.773	0.873	0.834	0.776	0.879	0.898	0.745	0.8
CAL-12T	0.401	0.565	0.384	0.453	0.314	1.4	1.22	0.956	1.15	1.1	0.621	0.573	0.704	0.597	0.821	0.762	0.663	0.588
COR-L23	0.326	0.283	0.184	0.286	0.282	0.996	1.07	0.947	0.947	0.86	0.798	0.653	0.556	0.622	0.945	0.88	0.864	0.787
COR-L 105	0.414	0.399	0.384	0.365	0.413	0.743	0.755	0.782	0.794	0.748	0.855	0.689	0.714	0.635	1	0.828	0.606	0.623
Calu-6						0.716	0.934	0.851	0.91	0.832	0.804	0.603	0.51	0.343	1.03	0.77	0.522	0.362
ChaGo-K-1	0.992	0.986	0.867	0.905	0.899	1.02	1.24		1.09	1.06	1.12	1.18	1.11	1.17				
EBC-1						0.389	0.455	0.479	0.443	0.47	0.179	0.16	0.175	0.147	0.917	0.844	0.933	0.518
EKVX	0.438	0.397	0.378	0.331	0.363	0.985	0.995	0.917	0.891	0.854	0.909	0.889	0.614	0.639	0.864	0.912	0.749	0.711
EMC-BAC-2	0.5	0.555	0.533	0.541	0.486	1.09	1.17	1.14	1.15	1.07	0.754	0.719	0.778	0.834	0.732	0.668	0.707	0.743
EPLC-272H	0.351	0.298	0.345	0.338	0.318		1.23	1.12	1.14	1.05	0.877	0.846	0.707	0.731	0.968	1.09	0.848	1.06
H3255	0.34	0.316	0.315	0.33	0.296	0.54	0.573	0.433	0.618	0.498	0.879	0.96	0.88	0.802	0.974	0.899	0.918	0.825
HARA	0.289	0.279		0.26	0.272	0.996	1.17	1.1	1.11	1.15	1.02	1.02	0.876	0.602	0.916	0.837	0.84	0.334
